# Tests used:
# Format in all cases: in vivo
# [1] = test system: transplanted mouse corneas; assay: Mouse corneal transplant model: angiogenesis score, opacity score and graft survival by slit lamp microscope; settings: Group R3: ocular instillation three times daily
# Protocol: (§1) Mouse corneal transplant models were prepared in accordance with a method described in a document (J Biol Methods 2015 2(3); e 27, hereinafter referred to as Document A) and used in an experiment. More specifically, allograft corneal transplantation was performed between 6 to 8-week-old donor male C57BL/6 mice and 6 to 8-week-old host male Balb/c mice.
# (§2) The mice that had received corneal transplantation were divided into three groups (5 mice per group): ocular instillation of PBS twice daily (Group P: control group); ocular instillation of ripasudil twice daily (Group R2); and ocular instillation of ripasudil three times daily (Group R3).
# (§3) The amount of PBS or ripasudil instilled into one eye per administration was 0.1 μL, and GLANATEC ophthalmic solution 0.4% was used as ripasudil.
# (§4) After transplantation, the ocular instillation was performed every day until day 56, during which the angiogenesis score and opacity score (each of which was determined by a method described in. Document A) and the survival time of corneal grafts were evaluated with a slit lamp microscope every 7 days. On day 56 that was the final day of the experiment, in addition to the above evaluations, the expression levels of vascular endothelial cells (CD31), vascular endothelial cell growth factor (VEGF-A), and lymph vessels (Lyve-1) in the corneas were measured by real-time-PCR.
# [2] = test system: CD31, VEGF-A and Lyve-1 in transplanted mouse corneas; assay: Mouse corneal transplant model: expression levels in the corneas by real-time PCR on day 56; settings: Group R3: three times daily, vs Group P, p<0.001
# Protocol: as §1, §2, §3, §4
# [3] = test system: mouse cervical lymph node cells; assay: Mouse corneal transplant model: cervical lymph node cells by flow cytometry (FACS) on day 14; settings: day 14 after transplantation
# Protocol: (§5) Mouse corneal transplant models were prepared (surgery), divided into groups (Group P, Group R2, and Group R3), and treated (ocular instillation) in the same manner as in Example 1. On day 14 after transplantation, cervical lymph node cells were collected, and CD4^+ T cells, the expression levels of inflammatory cytokines IFNγ and IL-17, CD4^+CD25^+Foxp3^+ regulatory T cells (Tregs) involved in immune tolerance, […], and the expression level of Foxp3 (Mean Fluorescein Intensity, MFI) were measured by flow cytometry (FACS). Further, on day 14 after transplantation, the expression levels of foxp3, IL-10, and TGFβ1 in the corneas were also measured by a real-time PCR (qPCR).
# [4] = test system: foxp3, IL-10 and TGFβ1 in transplanted mouse corneas; assay: Mouse corneal transplant model: expression levels in the corneas by real-time PCR (qPCR) on day 14; settings: day 14 after corneal transplantation
# Protocol: as §5
# [5] = test system: transplanted human cornea; assay: Effects on transplanted human cornea (case, angiogenesis in corneal graft); settings: after 3 weeks of ocular instillation
# Protocol: Corneal transplantation was performed in a case of corneal perforation resulting from corneal herpes (person), and as a result, severe hyperemia was observed one month after surgery, and vascularization was observed also in a corneal graft. Peripheral anterior synechia was observed, and secondary glaucoma was observed, and therefore GLANATEC ophthalmic solution 0.4% was prescribed.
# [6] = until day 56, vs Group P (PBS), p<0.05
smiles,measurement,setting,value
"C[C@H]1CNCCCN1S(=O)(=O)c1cccc2cncc(F)c12.Cl.O.O [ripasudil, 4-fluoro-5-{[(2S)-2-methyl-1,4-diazepan-1-yl]sulfonyl}isoquinoline monohydrochloride dihydrate]","transparency of transplanted cornea (photographs, FIG. 1)",[1],maintained until day 56
same,angiogenesis score,[1]; [6],significantly lower
same,opacity score,[1]; [6],significantly lower
same,survival time of corneal grafts,[1]; [6],significantly prolonged
same,CD31 expression level in the corneas,[2],significantly lower
same,Lyve-1 expression level in the corneas,[2],significantly lower
same,VEGF-A expression level in the corneas,[2],significantly lower
same,Foxp3 expression level (MFI) in cervical lymph node cells,[3]; Group R2: twice daily,significantly increased
same,CD4+CD25+Foxp3+ regulatory T cells (Tregs) in cervical lymph node cells,[3]; Group R3: three times daily,significantly increased
same,CD4+CD25+Foxp3− regulatory T cells (exTregs) in cervical lymph node cells,[3]; Group R3: three times daily,significantly reduced
same,Foxp3 expression level (MFI) in cervical lymph node cells,[3]; Group R3: three times daily,significantly increased
same,inflammatory cytokine IFN-γ in cervical lymph node cells,[3]; Group R3: three times daily,significant reduction
same,expression of foxp3 in the corneas,[4]; Group R2: twice daily,significantly increased
same,expression of IL-10 in the corneas,[4]; Group R3: three times daily,significantly increased
same,expression of TGFβ1 in the corneas,[4]; Group R3: three times daily,significantly increased
same,expression of foxp3 in the corneas,[4]; Group R3: three times daily,significantly increased
same,numerical analysis of new blood vessels with Image J (FIG. 10),[5],effect of suppressing angiogenesis

# Source: patent US10537579B2, “Rejection reaction suppressant” (JUNTENDO EDUCATIONAL FOUNDATION, priority 2017, dated 2020)
